In one assay the test system is human ApoA4 protein. Description: Western blot quantification of human ApoA4 protein in human hepatocyte culture supernatant. Format: cell-based. Conditions: PF-04217903 100 nmol/L added 1 hour before rh-HGF; FIG. 6. The protocol:
(§1) Human primary culture hepatocytes seeded in a 24-well plate (3.8×10^5 cells/well, Biopredic International, #HEP220-MW24) were cultured for three days in Incubation Medium (product name: Biopredic International, #MIL214), then c-Met inhibitor PF-04217903 (final concentration 100 nmol/L) (Selleck Chemicals, #S1094, lot. 05) or vehicle (DMSO) was added, and after 1 hour, rh-HGF (final concentration 100, 300, or 1000 ng/mL) or (Incubation Medium) for the control group (Control) was added.
Using hepatocyte culture supernatant (the same culture supernatant as that of cells for preparation of mRNA) 24 Hours after addition of rh-HGF, ApoA4 protein was quantified by Western blot method. […] After washing three times with the above wash solution, chemiluminescence solution SuperSignal West Dura Extended Duration Substrate (Thermo Scientific) was added to allow luminescence, and ApoA4 protein was detected with LAS-4000 (FUJIFILM).
With the quantification results of ApoA4 protein, Dunnett's multiple comparison test was carried out between the control and the rh-HGF administration groups.
In general terms: In western blotting, separated proteins are transferred to a membrane and probed.

A further assay has as its system ApoA4 protein. Description: Western blot quantification of serum ApoA4 protein in mice administered rh-HGF and c-Met inhibitor (Example 2). Conditions: PF-04217903 50 mg/kg oral 1 hour before rh-HGF; FIG. 3. It counts as in vivo, mouse. The protocol: (§2) To BALB/cAnNCrlCrlj male 6 weeks-old mice (CHARLES RIVER JAPAN), c-Met inhibitor PF-04217903 (50 mg/kg) (Selleck Chemicals #S1094, lot. 05) or vehicle (5% DMSO, 10% Tween80, 6.7 mmol/L aqueous hydrochloric acid solution) was orally administered at a dose of 10 mL/kg, and after 1 hour, rh-HGF (0.5, 1.5, 5.0, or 15 mg/kg) or PBS was intravenously administered. […] After euthanization, hepatic tissue was collected and immersed in RNA later (Ambion, #AM7021). Serum was collected from the blood collected.
Using the above serum, ApoA4 protein was quantified by Western blot method. To the serum diluted 200-folds with PBS (−) (Wako), ¼ volume of the electrophoresis buffer solution (313 mM Tris-HCl (pH 6.8), 10% SDS, 30% Glycerol, 0.2 mg/mL Bromo-phenol blue, and 25% 2-Mercaptoethnol) was added (the final dilution of the serum will be 250-folds), and this was subjected to heat treatment at 95° C. for 3 minutes. […] After washing three times with the above wash solution, chemiluminescence solution SuperSignal West Dura Extended Duration Substrate (Thermo Scientific) was added to allow luminescence, and ApoA4 protein was detected with LAS-4000 (FUJIFILM).
For the results of serum ApoA4 protein quantification, Dunnett's multiple comparison test was carried out between the control and the rh-HGF administration groups.

For another assay, the system named is ApoA4 mRNA. Description: Real-time PCR of liver ApoA4 mRNA in mice administered rh-HGF and c-Met inhibitor (Example 2). It counts as in vivo, mouse. Conditions: PF-04217903 50 mg/kg oral 1 hour before rh-HGF; FIG. 2. The protocol:
as §2
From the harvested liver, total RNA was purified with TRIZOL Reagent (Invitrogen, #15596-018), RNeasy Mini Kit (QIAGEN, #74104), and RNase-Free DNase set (QIAGEN, #79254), and RNA concentration was measured by absorbance.
Quantification of ApoA4 mRNA by real-time PCR method was carried out according to Example 1.
(§3) With the results of ApoA4 mRNA quantification, Dunnett's multiple comparison test was carried out between the control and the rh-HGF administration groups.

A further assay has as its system human ApoA4 mRNA. Briefly: Real-time PCR of human ApoA4 mRNA in human primary culture hepatocytes treated with rh-HGF. Format: cell-based. The settings on record: PF-04217903 100 nmol/L added 1 hour before rh-HGF; FIG. 5. The protocol: as §1
From hepatocytes 24 hours after addition of rh-HGF, total RNA was purified with RNeasy Mini Kit (QIAGEN, #74104) and RNase-Free DNase set (QIAGEN, #79254), and RNA concentration was measured by absorbance. The purified total RNA was reverse transcripted using High-Capacity cDNA Reverse Transcription Kit with RNase Inhibitor (Applied Biosystems, #4374966) to create cDNA. With the cDNA obtained as the template, the amount of ApoA4 mRNA expressed was examined by real-time PCR method. 18S rRNA was used as the internal control for examination. […]
as §3

Take `OCCn1cc(-c2cnc3nnn(Cc4ccc5ncccc5c4)c3n2)cn1` [PF-04217903, reference compound]: the “Effect on rh-HGF enhancement of extracellular release of human ApoA4 protein” value in the assay on human ApoA4 protein is listed as “inhibited”. Further, the “Effect on rh-HGF induction of serum ApoA4 protein” value in the assay with ApoA4 protein was “inhibited”. Moreover, the “Effect on rh-HGF induction of liver ApoA4 mRNA expression” value in the assay with ApoA4 mRNA is “significantly inhibited”. For the same compound, in the assay with human ApoA4 mRNA, the “Effect on rh-HGF enhancement of human ApoA4 mRNA expression” value was “inhibited”.
